This test addresses T1, human S1P1 receptor (Homo sapiens, UniProt P21453).
T1 construct: expressed in transfected cells; membranes used
The test is described as follows: GTP γ35S binding assay for S1P1 activity. Format: biochemical. The note with it: membranes of cells stably expressing the S1P1 receptor, test concentrations 0.08 to 5,000 nM. On the procedure:
Compounds were synthesized and tested for S1P1 activity using the GTP γ^35S binding assay. These compounds may be assessed for their ability to activate or block activation of the human S1P1 receptor in cells stably expressing the S1P1 receptor.
GTP γ^35S binding was measured in the medium containing (mM) HEPES 25, pH 7.4, MgCl2 10, NaCl 100, dithitothreitol 0.5, digitonin 0.003%, 0.2 nM GTP γ^35S, and 5 μg membrane protein in a volume of 150 μl. Test compounds were included in the concentration range from 0.08 to 5,000 nM unless indicated otherwise. Membranes were incubated with 100 μM 5′-adenylylimmidodiphosphate for 30 min, and subsequently with 10 μM GDP for 10 min on ice. Drug solutions and membrane were mixed, and then reactions were initiated by adding GTP γ^35S and continued for 30 min at 25° C. Reaction mixtures were filtered over Whatman GF/B filters under vacuum, and washed three times with 3 mL of ice-cold buffer (HEPES 25, pH7.4, MgCl2 10 and NaCl 100). Filters were dried and mixed with scintillant, and counted for ^35S activity using a β-counter. Agonist-induced GTP γ^35S binding was obtained by subtracting that in the absence of agonist. Binding data were analyzed using a non-linear regression method. In case of antagonist assay, the reaction mixture contained 10 nM […] in the presence of test antagonist at concentrations ranging from 0.08 to 5000 nM.
Background: GTPγS resists hydrolysis and so accumulates on activated G proteins.

T1 sequence (P21453 whole entry): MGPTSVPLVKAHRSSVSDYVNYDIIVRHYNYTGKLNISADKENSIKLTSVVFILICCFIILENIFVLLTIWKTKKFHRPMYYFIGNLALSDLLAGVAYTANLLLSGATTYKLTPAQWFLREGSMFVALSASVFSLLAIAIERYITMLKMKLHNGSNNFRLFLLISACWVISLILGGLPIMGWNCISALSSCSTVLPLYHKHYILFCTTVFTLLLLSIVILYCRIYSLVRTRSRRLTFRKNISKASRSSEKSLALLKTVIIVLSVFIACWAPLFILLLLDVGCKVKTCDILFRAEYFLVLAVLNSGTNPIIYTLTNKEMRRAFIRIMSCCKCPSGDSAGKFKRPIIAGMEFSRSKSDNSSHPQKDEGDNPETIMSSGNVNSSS

Regarding `O=C(O)C1CN(Cc2ccc(-c3noc(CCCCc4ccccc4)n3)cc2)C1` [Compound 1, 1-{4-[5-(4-Phenylbutyl)-1,2,4-oxadiazol-3-yl]benzyl}azetidine-3-carboxylic acid], a half-maximal effect (EC50) was put at 483 nM.

(Values after patent US8859598B2, “1, 2, 4-oxadiazoles azetidine derivatives as sphingosine-1 phosphate receptors modulators” (Allergan, Inc., priority 2012, dated 2014).)
